The NIST ThermoML archive (doi:10.1016/j.tca.2013.08.017)
Numbers after ± are expanded uncertainties.

Columns and labels:
[1] = 101.33 kPa, Crystal, X-ray diffraction
[2] = molar heat capacity at constant pressure; conditions: 101.33 kPa, Small sample (50 mg) DSC

CC(C)(C)n1ncc2c(-c3ccccc3)n[nH]c(=O)c21
mass density ([1]; 296 K): 1298 ± 6 kg/m3
molar heat capacity at constant pressure ([2]; 273 K, Crystal): 944.5 ± 19 J/K/mol
molar heat capacity at constant pressure ([2]; 283 K, Crystal): 1034.5 ± 21 J/K/mol
molar heat capacity at constant pressure ([2]; 293 K, Crystal): 1124.7 ± 22 J/K/mol
molar heat capacity at constant pressure ([2]; 303 K, Crystal): 1216.4 ± 24 J/K/mol
molar heat capacity at constant pressure ([2]; 313 K, Crystal): 1310.8 ± 26 J/K/mol
molar heat capacity at constant pressure ([2]; 323 K, Crystal): 1409.1 ± 28 J/K/mol
molar heat capacity at constant pressure ([2]; 333 K, Crystal): 1512.5 ± 30 J/K/mol
molar heat capacity at constant pressure ([2]; 343 K, Crystal): 1622.1 ± 32 J/K/mol
molar heat capacity at constant pressure ([2]; 353 K, Crystal): 1739.2 ± 35 J/K/mol
molar heat capacity at constant pressure ([2]; 363 K, Crystal): 1865 ± 37 J/K/mol
molar heat capacity at constant pressure ([2]; 373 K, Crystal): 2000.7 ± 40 J/K/mol
molar heat capacity at constant pressure ([2]; 383 K, Crystal): 2147.5 ± 43 J/K/mol
molar heat capacity at constant pressure ([2]; 393 K, Crystal): 2306.5 ± 46 J/K/mol
molar heat capacity at constant pressure ([2]; 403 K, Crystal): 2479 ± 50 J/K/mol
molar heat capacity at constant pressure ([2]; 413 K, Crystal): 2666.2 ± 53 J/K/mol
molar heat capacity at constant pressure ([2]; 423 K, Crystal): 2869.3 ± 57 J/K/mol

CC(C)(C)n1ncc2c(C(F)(F)F)n[nH]c(=O)c21
mass density ([1]; 293 K): 1451 ± 7 kg/m3
molar heat capacity at constant pressure ([2]; 273 K, Crystal): 174 ± 3.5 J/K/mol
molar heat capacity at constant pressure ([2]; 283 K, Crystal): 202.9 ± 4.1 J/K/mol
molar heat capacity at constant pressure ([2]; 293 K, Crystal): 231.9 ± 4.6 J/K/mol
molar heat capacity at constant pressure ([2]; 303 K, Crystal): 260.8 ± 5.2 J/K/mol
molar heat capacity at constant pressure ([2]; 313 K, Crystal): 289.8 ± 5.8 J/K/mol
molar heat capacity at constant pressure ([2]; 323 K, Crystal): 318.7 ± 6.4 J/K/mol
molar heat capacity at constant pressure ([2]; 333 K, Crystal): 347.6 ± 7 J/K/mol
molar heat capacity at constant pressure ([2]; 343 K, Crystal): 376.6 ± 7.5 J/K/mol
molar heat capacity at constant pressure ([2]; 353 K, Crystal): 405.5 ± 8.1 J/K/mol
molar heat capacity at constant pressure ([2]; 363 K, Crystal): 434.4 ± 8.7 J/K/mol
molar heat capacity at constant pressure ([2]; 373 K, Crystal): 463.4 ± 9.3 J/K/mol
molar heat capacity at constant pressure ([2]; 383 K, Crystal): 492.3 ± 9.8 J/K/mol
molar heat capacity at constant pressure ([2]; 393 K, Crystal): 521.2 ± 10 J/K/mol
molar heat capacity at constant pressure ([2]; 403 K, Crystal): 550.2 ± 11 J/K/mol
molar heat capacity at constant pressure ([2]; 413 K, Crystal): 579.1 ± 12 J/K/mol
molar heat capacity at constant pressure ([2]; 423 K, Crystal): 608.1 ± 12 J/K/mol
molar heat capacity at constant pressure ([2]; 448 K, Liquid): 813.3 ± 16 J/K/mol
molar heat capacity at constant pressure ([2]; 458 K, Liquid): 923.4 ± 18 J/K/mol
molar heat capacity at constant pressure ([2]; 463 K, Liquid): 978.4 ± 20 J/K/mol
